US11154569B2, “Ruthenium μ-nitrido complexes and their use as calcium uptake inhibitors” (CORNELL UNIVERSITY, priority 2018, dated 2021)

What was measured:
[1] = target: T1, mitochondrial calcium uniporter (MCU) (Homo sapiens, UniProt Q8NE86); experiment: MCU-mediated Ca2+ uptake and ΔΨm in permeabilized HEK293T cells; type: cell-based; set-up: endogenous in cells; host or cells: HEK293T (digitonin-permeabilized); details: for MCU mediated mCa2+ uptake / transient ΔΨm loss (JC-1): 5 μM compound, 20 μM Ca2+ bolus; for MCU mediated mCa2+ uptake: digitonin permeabilized HEK293T cells; for transient ΔΨm loss (JC-1): permeabilized HEK293T cells
T1 sequence (Q8NE86 51-351): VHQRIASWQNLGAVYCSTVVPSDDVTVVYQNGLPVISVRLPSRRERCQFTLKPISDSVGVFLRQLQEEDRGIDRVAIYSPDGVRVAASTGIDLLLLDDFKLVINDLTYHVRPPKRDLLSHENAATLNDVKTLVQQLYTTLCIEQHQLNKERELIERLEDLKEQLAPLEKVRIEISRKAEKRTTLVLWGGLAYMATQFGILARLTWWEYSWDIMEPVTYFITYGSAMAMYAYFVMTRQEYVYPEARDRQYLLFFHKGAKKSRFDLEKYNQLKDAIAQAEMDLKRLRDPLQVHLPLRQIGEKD
T1 sequence (Q9H4I9 48-107 partner limits assumed): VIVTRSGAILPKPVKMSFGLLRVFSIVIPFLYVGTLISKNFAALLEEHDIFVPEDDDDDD
Method: An equal number of IHEK293T (6×10^6 cells) were washed in Ca^2+ free PBS, pH 7.4, resuspended and permeabilized with 40 μg/ml digitonin in 1.5 ml of intracellular medium (ICM) composed of 120 mM KCl, 10 mM NaCl, 1 mM K—H2PO4, 20 mM HE PES-Tris, pH 7.2 and 2 μM thapsigargin to block the SERCA pump. All measurements were performed in the presence of 2 mM succinate. The permeabilized cells were loaded with JC-1 (800 nM) and Fura2-FF (0.5 μM), respectively. Fluorescence was monitored in a multi-wavelength excitation dual-wavelength emission fluorimeter. [Ca^2+]out is represented as the excitation ratio (340 nm/380 nm) of Fura2-FF/FA fluorescence and ΔΨm as the ratio of the fluorescence of J-aggregate (570 nm excitation/595 nm emission) and monomer (490 nm excitation/535 nm emission) forms of JC-1. A series of extra-mitochondrial Ca^2+ bolus (20 μM) was added and mitochondrial uncoupler, CCCP (2 jμM), were added at the indicated time points. All of the experiments were performed at 37° C. with constant stirring.
With the new nitrido-bridged ruthenium compounds C-2 and C-3 prepared, MCU-inhibitory properties of these compounds were evaluated and their activities compared to C-1, the oxo-bridged Ru360 analogue of the conventional art (S. R. Nathan et al., Inorg. Chem. 2017, 56, 3123-3126 and S. R. Nathan et al., J. Vis. Exp. 2017, 56527). The cytotoxicity of the complexes in HEK293 cells was first measured using the colorimetric thiazolyl blue tetrazolium bromide (MTT) assay, as well known in the art. […] To measure the effect of these compounds on MCU activity, permeabilized HEK293T cells were treated with commercially available Ru360, C-1, C-2, or C-3 (5 jμM) 200 seconds prior to the delivery of a 20 μM bolus of Ca^2+ in the presence of 2 mM succinate as an energy source and the sarco/endoplasmic reticulum Ca^2+-ATPase (SERCA) pump blocker thapsigargin to prevent ER Ca^2+ uptake (S. Shanmughapriya et al., Sci. Signal. 2015, 8, ra23).
FIGS. 2A-2C are graphs showing changes in mitochondrial membrane potential (ΔΨm, JC-1, top panel) and extramitochondrial Ca^2+([Ca^2+]out) clearance (Fura-2 FF, bottom panel) in digitonin permeabilized HEK293T cells in response to 20 μM of Ca^2+ after treatment with 5 μM of C-1 (FIG. 2A), C-2 (FIG. 2B), and C-3 (FIG. 2C). The transient drop in ΔΨm in control cells upon Ca^2+ addition indicates accumulation of Ca^2+ in the mitochondrial matrix. FIG. 2D is a graph quantifying the rate of [Ca^2+] uptake as a function of decrease in [Ca^2+]out after a […] Ca^2+ pulse. […] Additionally, ΔΨm was monitored using 5,5′,6,6′-tetrachloro-1,1′,3,3′-tetraethylbenzimidazolylcarbocyanine iodide (JC-1) dye (M. Reen et al., Biochemistry 1991, 30, 4480-4486).
Having identified (C-2 as a cell-permeable MCU inhibitor, a dose-response analysis was performed to determine the potency of C-2 towards mCa^2+ uptake inhibition of C-2 in a permeabilized cell system. Permeabilized IHEK293T cells were treated with C-2 (1 nM to 1 μM). A 20 μM Ca^2+ bolus was added after baseline recording, and the extra-mitochondrial calcium cleared was used as an indicator for MCU-mediated mCa^2+ uptake using Fura-2FF. The results are shown in FIGS. 4A-4C. FIG. 4A includes representative traces of [Ca^2+]out clearance in permeabilized HEK293T cells challenged with a range of C-2 concentrations (1, 2, 3, 5, and 10 nM). FIG. 4B is a graph comparing MCU-inhibitory effect by Ru360 (30 nM) and C-2 (2 and 10 nM) at lower concentrations. FIG. 4C is a graph showing calculation of dose-dependent IC50 inhibition by C-2 and Ru360. Data represent mean±SEM (n=3-6), n.s.=not significant. […] Furthermore, complete inhibition of mCa^2+ uptake was observed when cells were dosed with 10 nM C-2 while 500 nM of Ru360 was required for the same response (FIGS. 4A and 4B).

[2] = system: HEK293 cells; experiment: MTT cytotoxicity assay; type: cell-based, human
Method: HEK293 (human embryonic kidney cells were obtained from American Type Culture Collection (ATCC, Washington D.C.) and cultured as adherent monolayers in a humidified 5% CO2 atmosphere at 37° C. in Minimum Essential Media supplemented with 10% fetal bovine serum (FBS) and 100 U/mL penicillin/streptomycin. HeLa cells were cultured in Dulbecco's Modified Eagle's Medium (DMEM) supplemented with 10% FBS and 100 U/mL penicillin/streptomycin. Cells were checked for contamination monthly using the PlasmoTest™ mycoplasma detection kit. Ventricular cardiomyocytes were isolated from neonatal rats (NRVMs) as previously described (H. M. Piper et al., Piper H. M. (eds), Cell Culture Techniques in Heart and Vessel Research, Springer Verlag: Berlin, 1990). The isolated myocytes were cultured in Ham's F-10 supplemented with 5%/o fetal bovine serum (FBS) and penicillin/streptomycin (100 U/ml) at 37° C. in a 95% air/5% CO2 humidified atmosphere for four days
Cells were seeded at 4000 cells/well in 100 μL/well in a 96-well plate and incubated for 24 hours. The media was removed and replaced with 200 μL of growth media containing varying concentrations of the complex. After 72 hours of incubation, the media was replaced with MEM containing 1 mg/mL of (4,5-dimethylthiazol-2-yl)-2,5-diepheyltetrazolium bromide (MTT). After four hours incubation, the media was removed and the purple formazan crystals were solubilized using 100 μL of a 8/1 DMSO/glycine buffer (pH 10) mixture. The absorbance at 570 nm was measured using a plate reader.
With the new nitrido-bridged ruthenium compounds C-2 and C-3 prepared, MCU-inhibitory properties of these compounds were evaluated and their activities compared to C-1, the oxo-bridged Ru360 analogue of the conventional art (S. R. Nathan et al., Inorg. Chem. 2017, 56, 3123-3126 and S. R. Nathan et al., J. Vis. Exp. 2017, 56527). The cytotoxicity of the complexes in HEK293 cells was first measured using the colorimetric thiazolyl blue tetrazolium bromide (MTT) assay, as well known in the art. […]

| Molecule | IC50 [1] [nM] | MCU mediated mCa2+ uptake [1] | transient ΔΨm loss (JC-1) [1] | toxicity to human cells [2] | IC50 [2] [nM] |
| --- | --- | --- | --- | --- | --- |
| N.N.N.N.N.N.N.N.[Cl-].[Cl-].[N-3].[Ru+4].[Ru+4] [C-2, [Ru2(μ-N)(NH3)8Cl2]Cl3] | 2.6 | significant reduction in MCU mediated mCa^2+ uptake | no transient A m loss | low toxicity to human cells |  |
| N.N.N.N.N.N.N.N.O=C[O-].O=C[O-].[O-2].[Ru+3].[Ru+4] [Ru360, reference compound] | 30 | significant reduction in MCU mediated mCa^2+ uptake | no transient A m loss |  |  |
| [Ru2(μ-N)(en)4Cl2]Cl3 [C-3] |  | significant reduction in MCU mediated mCa^2+ uptake | no transient A m loss |  | 226000 ± 19000 |
